Measured values: PubChem BioAssay (NCI)
Where “and” joins values, the source holds several entries; their conditions need not be identical. Equal entries are not always repeated.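 1) Cells in 96-well plates. 2) Compound, 48 h, 5 concentrations. 3) Linear interpolation between surrounding doses. 4) Unreached endpoint = highest concentration. GI50 = concentration required for 50% inhibition of growth. Definition used: TGI = concentration required for complete inhibition of growth.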 Where a SMILES comes first, the peptide text is derived from it. The star is where a group is joined. Cbz = O=C(OCc1ccccc1)*

Assays:
Test in all cases: DTP human tumour cell line panel, 48 h
A498 renal = test system: A498 renal
DU-145 prostate = test system: DU-145 prostate
HCC-2998 colon = test system: HCC-2998 colon
HCT-116 colon = test system: HCT-116 colon
HOP-92 NSCLC = test system: HOP-92 NSCLC
HT29 colon = test system: HT29 colon
K-562 leukemia = test system: K-562 leukemia
MCF7 breast = test system: MCF7 breast
NCI-H522 lung = test system: NCI-H522 lung
SF-268 CNS = test system: SF-268 CNS
SK-MEL-2 melanoma = test system: SK-MEL-2 melanoma
SK-MEL-5 melanoma = test system: SK-MEL-5 melanoma
U251 CNS = test system: U251 CNS

C=CC1(CC[C@]2(c3ccc(OC)c(OC)c3)C=[N+]([O-])O[C@H](O[C@@H]3CCCC[C@H]3C(C)(C)c3ccccc3)C2)OCC(C)(C)CO1 showed a TGI (A498 renal) greater than 61 µM, a TGI (DU-145 prostate) of 49.9 µM and a TGI (HCC-2998 colon) of 31.3 µM. For the same compound, the TGI (HCT-116 colon) was 41.3 µM, the TGI (HOP-92 NSCLC) was greater than 46.6 µM and the TGI (HT29 colon) was 28.2 µM. It also gave a TGI (K-562 leukemia) greater than 56.9 µM, a TGI (MCF7 breast) greater than 42.4 µM and a TGI (NCI-H522 lung) of 17.1 µM. It also gave a TGI (SF-268 CNS) of 52.1 µM, a TGI (SK-MEL-2 melanoma) of 28.7 µM and a TGI (SK-MEL-5 melanoma) of 28.3 µM. For the same compound, the TGI (U251 CNS) was greater than 50.5 µM.
CCOC(=O)CCC(NC(=O)C(Cc1ccccc1)NC(=O)OCc1ccccc1)C(=O)OCC (stereo not drawn) (Cbz-Phe-Glu(OEt)-OEt; configuration not given here) showed a TGI (A498 renal) of 43.9 µM, a TGI (DU-145 prostate) of 22.3 µM and a TGI (HCC-2998 colon) of 32.1 µM. It also gave a TGI (HCT-116 colon) of 32.1 µM, a TGI (HOP-92 NSCLC) of 36.3 µM and a TGI (HT29 colon) of 42.1 µM. The TGI (K-562 leukemia) was greater than 100 µM, the TGI (MCF7 breast) was 39.6 µM and the TGI (NCI-H522 lung) was 29.6 µM. It also gave a TGI (SF-268 CNS) of 34.5 µM, a TGI (SK-MEL-2 melanoma) of 48 µM and a TGI (SK-MEL-5 melanoma) of 28.8 µM. The TGI (U251 CNS) was 28.9 µM.
N#Cc1cc2c(cc1Cl)Sc1nnc(Nc3ccccc3)n1S2(=O)=O showed a TGI (A498 renal) of 20.8 µM, a TGI (DU-145 prostate) of 5.2 µM and a TGI (HCC-2998 colon) of 3 µM. The TGI (HCT-116 colon) was 4 µM, the TGI (HOP-92 NSCLC) was 4.74 µM and the TGI (HT29 colon) was 6.91 µM. The TGI (K-562 leukemia) was 11.1 µM, the TGI (MCF7 breast) was greater than 40.4 µM and the TGI (NCI-H522 lung) was 4.33 µM. It also gave a TGI (SF-268 CNS) of 10.5 µM, a TGI (SK-MEL-2 melanoma) of 8.26 µM and a TGI (SK-MEL-5 melanoma) of 6.84 µM. For the same compound, the TGI (U251 CNS) was 3.6 µM.
For Cc1ccnc2c1C(=O)C1=C(OC(C)(C)CC1O)C2=O (configuration not stated), the TGI (A498 renal) was 32 µM, the TGI (DU-145 prostate) was 17.2 µM and the TGI (HCC-2998 colon) was 15.3 µM. For the same compound, the TGI (HCT-116 colon) was 9.98 µM, the TGI (HOP-92 NSCLC) was 24.6 µM and the TGI (HT29 colon) was 10.8 µM. For the same compound, the TGI (K-562 leukemia) was greater than 100 µM, the TGI (MCF7 breast) was 7.94 µM and the TGI (NCI-H522 lung) was 11.1 µM. It also gave a TGI (SF-268 CNS) of 17.5 µM, a TGI (SK-MEL-2 melanoma) of 8.83 µM and a TGI (SK-MEL-5 melanoma) of 2.6 µM. It also gave a TGI (U251 CNS) of 13.2 µM.
For COc1cc2c(cc1O)NC(=O)[C@@H]1CCCN1C2=O, the TGI (A498 renal) was greater than 100 µM, the TGI (DU-145 prostate) was greater than 100 µM and the TGI (HCC-2998 colon) was greater than 100 µM. The TGI (HCT-116 colon) was greater than 100 µM, the TGI (HOP-92 NSCLC) was greater than 100 µM and the TGI (HT29 colon) was greater than 100 µM. The TGI (K-562 leukemia) was greater than 100 µM, the TGI (MCF7 breast) was greater than 100 µM and the TGI (NCI-H522 lung) was greater than 100 µM. For the same compound, the TGI (SF-268 CNS) was greater than 100 µM, the TGI (SK-MEL-2 melanoma) was greater than 100 µM and the TGI (SK-MEL-5 melanoma) was greater than 100 µM. The TGI (U251 CNS) was greater than 100 µM.
In the case of CC(=O)c1ccc2c(c1)C(=O)c1sc(C(C)=O)cc1C2=O, the TGI (A498 renal) is reported as 50 µM, the GI50 (DU-145 prostate) is reported as 1.54 µM and the TGI (DU-145 prostate) is reported as 2.12 µM and 3 µM. For the same compound, the GI50 (HCC-2998 colon) was 1.71 µM, the GI50 (HCT-116 colon) was 0.349 µM and the TGI (HCT-116 colon) was 14.3 µM and 12.3 µM. For the same compound, the TGI (HOP-92 NSCLC) was 50 µM, the GI50 (HT29 colon) was 2.71 µM and the TGI (HT29 colon) was 2.82 µM and 9.47 µM. The GI50 (K-562 leukemia) was 0.264 µM, the TGI (K-562 leukemia) was 50 µM and > 100 µM and the TGI (MCF7 breast) was 4.7 µM. For the same compound, the GI50 (NCI-H522 lung) was 0.222 µM, the TGI (NCI-H522 lung) was 1.7 µM and 0.585 µM and the GI50 (SF-268 CNS) was 0.819 µM. The TGI (SF-268 CNS) was 3.85 µM and 3.41 µM, the TGI (SK-MEL-2 melanoma) was 4.23 µM and 2.98 µM and the TGI (SK-MEL-5 melanoma) was 1.89 µM. It also gave a TGI (U251 CNS) of 50 µM.
In the case of O=C1CC(=O)NC(=NN2C(=O)/C(=C/c3ccc(Cl)c(Cl)c3)N=C2c2ccccc2)N1, the TGI (A498 renal) is reported as 62.9 µM, the TGI (DU-145 prostate) is reported as greater than 100 µM and the TGI (HCC-2998 colon) is reported as 39.6 µM. The TGI (HCT-116 colon) was 38 µM, the TGI (HOP-92 NSCLC) was 89.8 µM and the TGI (HT29 colon) was 44.4 µM. For the same compound, the TGI (K-562 leukemia) was 32.5 µM, the TGI (MCF7 breast) was 49.8 µM and the TGI (NCI-H522 lung) was 86 µM. For the same compound, the TGI (SF-268 CNS) was greater than 100 µM, the TGI (SK-MEL-2 melanoma) was 34.4 µM and the TGI (SK-MEL-5 melanoma) was 30.3 µM. The TGI (U251 CNS) was 90.4 µM.
